Key:
DLD1 NRF2-GOF [1] = assay: drug sensitivity score (DSS) cytotoxicity (DSS score); higher = more toxic; extreme values may be limits of the assay; conditions: 72 h; CellTox Green cytotoxicity
Method in brief: (§1)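 In 384-well plates, isogenic DLD1 cells with NRF2 wild-type or CRISPR-edited status, grown in DMEM with 10% FBS, received library compounds at 5 concentrations spanning a 10,000-fold range. At 72 h, CellTox Green signals were read on a Pherastar FS reader and scaled between vehicle wells and 100-μM positive-control wells. Cytotoxicity endpoints, TC50 and a drug sensitivity score based on normalised area under the curve, came from logistic dose-response fits.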

DLD1 NRF2-WT [2] = assay: as above; conditions: 72 h; CellTox Green cytotoxicity
Method in brief: as §1

DLD1 NRF2-GOF [3] = assay: drug sensitivity score (DSS) viability (DSS score); higher = more sensitive; extreme values may be limits of the assay; conditions: 72 h; CellTiter-Glo viability
Method in brief: (§2)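 DLD1 colorectal cancer cells, an isogenic pair either NRF2 wild-type or carrying a CRISPR gain-of-function, were cultured in DMEM with 10% FBS and treated in 384-well plates with library compounds at 5 concentrations across a 10,000-fold range. CellTiter-Glo viability was read on a Pherastar FS reader after 72 h and normalised to vehicle wells and 100-μM positive-control wells. Four-parameter logistic dose-response fits were applied. EC50 and drug sensitivity score, a normalised area under the curve, were taken from these fits.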

DLD1 NRF2-WT [4] = assay: as above; conditions: 72 h; CellTiter-Glo viability
Method in brief: as §2

DLD1 NRF2-GOF [5] = assay: TC50 cytotoxicity; higher = less toxic; conditions: 72 h; CellTox Green cytotoxicity
Method in brief: as §1

DLD1 NRF2-WT [6] = assay: TC50 cytotoxicity; higher = less toxic; conditions: 72 h; CellTox Green cytotoxicity
Method in brief: as §1

DLD1 NRF2-GOF [7] = conditions: 72 h; CellTiter-Glo viability
Method in brief: as §2

DLD1 NRF2-WT [8] = conditions: 72 h; CellTiter-Glo viability
Method in brief: as §2

EC50 viability (DLD1 NRF2-GOF [7]) | EC50 viability (DLD1 NRF2-WT [8]) | Compound | drug sensitivity score (DLD1 NRF2-GOF [1]) | drug sensitivity score (DLD1 NRF2-WT [2]) | drug sensitivity score (DLD1 NRF2-GOF [3]) | drug sensitivity score (DLD1 NRF2-WT [4]) | TC50 cytotoxicity (DLD1 NRF2-GOF [5]) | TC50 cytotoxicity (DLD1 NRF2-WT [6])
0.929 µM | 0.795 µM | CCCCc1nc2cc(/C=C/C(=O)NO)ccc2n1CCN(CC)CC [Pracinostat] | 1.6 | 4 | 9.1 | 11.9 | > 10 µM | 1.48 µM
0.125 µM | 0.11 µM | CC(C)C[C@H](NC(=O)CNC(=O)c1cc(Cl)ccc1Cl)B(O)O [Ixazomib] | 6.8 | 9.6 | 10.3 | 11 | 0.246 µM | 0.148 µM
0.0261 µM | 0.0132 µM | Cn1c(=O)n(-c2ccc(C(C)(C)C#N)cc2)c2c3cc(-c4cnc5ccccc5c4)ccc3ncc21 [Dactolisib] | 0 | 0 | 9.8 | 13.9 | > 1 µM | > 1 µM
0.242 µM | 0.164 µM | O=C1NC(=O)[C@@H](c2cn3c4c(cccc24)CCC3)[C@@H]1c1c[nH]c2ccccc12 [Tivantinib] | 0.9 | 1.4 | 5 | 6.7 | > 1 µM | > 1 µM
> 10 µM | > 10 µM | CNC(=O)c1ccc(N2C(=S)N(c3ccc(C#N)c(C(F)(F)F)c3)C(=O)C2(C)C)cc1F [Enzalutamide] | 0 | 0 | 0.1 | 0.5 | > 10 µM | > 10 µM
1.71 µM | 2.25 µM | CO[C@H]1CC[C@H](N2C(=O)CNc3ncc(-c4ccc(C(C)(C)O)nc4)nc32)CC1 [CC-223] | 0.1 | 0 | 5.3 | 4.6 | > 10 µM | > 10 µM
> 1 µM | > 1 µM | Oc1ccc2c(c1)CC[C@H](c1ccccc1)[C@@H]2c1ccc(OCCN2CCCC2)cc1 [Lasofoxifene] | 0 | 0 | 0 | 0 | > 1 µM | > 1 µM
> 10 µM | > 10 µM | CCCS(=O)(=O)Nc1ccc(F)c(C(=O)c2c[nH]c3ncc(-c4ccc(Cl)cc4)cc23)c1F [Vemurafenib] | 0 | 0 | 0 | 0.2 | > 10 µM | > 10 µM
> 1 µM | > 1 µM | CNC(=O)c1ccc(-c2cnc3ncc(Cc4ccc5ncccc5c4)n3n2)cc1F [Capmatinib] | 0 | 0 | 0 | 0 | > 1 µM | > 1 µM
0.0452 µM | 0.172 µM | CCn1cc(-c2ccnc3[nH]c(-c4cccc(CN(C)C)c4)cc23)c(-c2ccc(NC(=O)N(C)C)cc2)n1 | 1.6 | 0 | 4.4 | 2.8 | > 1 µM | > 1 µM
2.36 µM | > 25 µM | CN[C@@H](C)C(=O)N[C@H](C(=O)N1CCC[C@H]1c1nc(C(=O)c2ccc(F)cc2)cs1)C1CCCCC1 [NVP-LCL161] | 0 | 0 | 4.8 | 2.1 | > 25 µM | > 25 µM
> 1 µM | > 1 µM | Cc1ccc(F)c(NC(=O)Nc2ccc(-c3cccc4[nH]nc(N)c34)cc2)c1 [Linifanib] | 0 | 0 | 1.1 | 0.5 | > 1 µM | > 1 µM
> 10 µM | 1.57 µM | C[C@]1(c2nc3c(C(N)=O)cccc3[nH]2)CCCN1 [Veliparib] | 0 | 0 | 0 | 2.9 | > 10 µM | > 10 µM
> 50 µM | > 50 µM | CCN(CC)C(=S)SSC(=S)N(CC)CC [Disulfiram(+CuCl2)] | 0 | 0 | 0.1 | 0.1 | > 50 µM | > 50 µM
0.0075 µM | 0.0065 µM | CC(C)C[C@H](NC(=O)[C@H](CCc1ccccc1)NC(=O)CN1CCOCC1)C(=O)N[C@@H](Cc1ccccc1)C(=O)N[C@@H](CC(C)C)C(=O)[C@@]1(C)CO1 [Carfilzomib] | 22.3 | 26.9 | 25.8 | 26.6 | 0.0143 µM | 0.0061 µM
3.03 µM | 2.67 µM | C[C@@H]1COCCN1c1cc(C2([S@](C)(=N)=O)CC2)nc(-c2cc[nH]c3nccc2-3)n1 [AZD6738] | 0 | 0 | 4.5 | 7.8 | > 25 µM | > 25 µM
0.0228 µM | 0.0266 µM | CC(C)c1cc(-c2n[nH]c(=O)n2-c2ccc3c(ccn3C)c2)c(O)cc1O [Ganetespib] | 0 | 0 | 18.4 | 17.9 | > 1 µM | > 1 µM
1.51 µM | 0.687 µM | NC1(C(=O)N[C@@H](CCO)c2ccc(Cl)cc2)CCN(c2ncnc3[nH]ccc23)CC1 [AZD-5363] | 0 | 0 | 5.2 | 6.1 | > 10 µM | > 10 µM

Compound | EC50 viability (DLD1 NRF2-GOF [7]) | EC50 viability (DLD1 NRF2-WT [8]) | drug sensitivity score (DLD1 NRF2-GOF [1]) | drug sensitivity score (DLD1 NRF2-WT [2]) | drug sensitivity score (DLD1 NRF2-GOF [3]) | drug sensitivity score (DLD1 NRF2-WT [4]) | TC50 cytotoxicity (DLD1 NRF2-GOF [5]) | TC50 cytotoxicity (DLD1 NRF2-WT [6])
Cn1cc(C2=C(c3cn(C4CCN(Cc5ccccn5)CC4)c4ccccc34)C(=O)NC2=O)c2ccccc21 [Enzastaurin] | > 10 µM | > 10 µM | 0 | 0 | 0 | 0 | > 10 µM | > 10 µM
